From article PMC5617480 (Oncotarget, 2017)

Assays:
[1] = system: Pu27 (DNA, G4) TGGGGAGGGTGGGGAGGGTGGGGAAGG; experiment: fluorescent intercalator displacement (FID); conditions: thiazole orange displaced
BEL-7402 cells = experiment: Cytotoxicity assay (MTT assay); type: cell-based, human; conditions: for Inhibitory rates (%): BEL-7402, 20 μM; for IC50: BEL-7402, 24 h
Method: (§1) To evaluate the cytotoxicity of chiral platinum(II) complexes, HeLa, BEL-7402, MGC80-3, BEL-7404, A549, Hep-G2 and HL-7702 cells (normal cells) were treated with varying concentrations of complexes 1–6 and cisplatin (positive control, cisplatin was dissolved at a concentration of 1.0 mM in 0.154 M NaCl) for 24 h and 48 h. The cell viability of each experimental group was examined by MTT assays. […] [61, 62]. […] Therefore, complex 6 (10 μM) was selected for cell apoptosis analysis by flow-cytometry, RT-PCR, caspase-3/9 activation assays, western blot and transfection assays in BEL-7404 cells for 24 h. In addition, this observed difference in in vitro cytotoxicity between the three complexes 4–6 could be due to the influence of the chirality of the FOA ligand [68]. […]
(§2) Materials 100 U/mL penicillin and 100 μg/mL streptomycin in 25 cm2 culture flasks at 37 °C humidified atmosphere with Tris, RNase A, and propidium iodide (PI) were 5% CO2. All cells to be tested in the following assays have purchased from Sigma. The antibody of mutp53, a passage number of 3-6. […]
(§3) were purchased from Abcam. Unless otherwise stated, BEL-7404, A549, and Hep-G2 cancer-cell lines and HL-spectroscopic titration experiments were carried out in 7702 normal cells) per well were seeded in triplicate in TBS (10 mM pH7.35 Tris-HCl, containing 100 mM KCl). 96-well plates and incubated for 24 h at 37 °C and 5.0% The total RNA isolation kit and the two-step RT-PCR kit CO2/95.0% air. Then graded amounts of compound were purchased from TIANGEN. DNA oligomers (highly added to the wells in 10.0 μL of FBS free culture medium polymerized stored at 4 °C; long-term storage at −20 °C) and the plates were incubated in a 5% CO2 humidified are listed in Supplementary Table 1 and were obtained from atmosphere for 24 h and 48 h. Six replica wells were used Shanghai Sangon Biological Engineering Technology & as controls. Each the cells were grew for 12.0 h before Services (Shanghai, China). All tumor cell lines (HeLa, treatment to reach 70.0% confluency and 20.0 μL of tested BEL-7402, MGC80-3, BEL-7404, A549, Hep-G2 cancer- various concentrations of compounds were added to each cell lines and normal liver cell line HL-7702) were obtained well. The final concentration of the tested complexes from the Shanghai Institute for Biological Science (China). or compounds were kept at 1.25, 2.5, 5, 10, 20 μM, Stock solutions of all the compounds (2.0 mM) were made respectively. After 24 h or 48 h of culture, 0.1 mg of in DMSO, and further dilutions to working concentrations MTT (in 20 μL of PBS) was added to each well, and cells were made with corresponding buffer. were incubated at 37 °C for 6 h. The formed formazan crystals were then dissolved in 100 μL of DMSO and the Instrumentation absorbance was read by enzyme labeling instrument with Infrared spectra were obtained on a Perkine Elmer 490/630 nm double wavelength measurement. The final FT-IR Spectrometer. Elemental analyses (C, H, N) IC50 values were calculated by the Bliss method (n = 5). were carried out on a Perkin Elmer Series II CHNS/O All tests were repeated in at least three independent trials. […]
(§4) 10.0 min. The cell pellet obtained was dissolved in 1.0 M
(§5) The region between 200 and 400 nm was scanned for each NaOH (1.0 mL) and diluted with 2.0% (v/v) HNO3 (5.0 sample. MTT assay was performed on M1000 microplate mL) for determining whole cell Pt content. Another set reader (Tecan Trading Co. Ltd, Shanghai, China). Cell was treated similarly, nuclear proteins, nuclear fraction, cycle and apoptosis analysis was recorded on FACS Aria cytoplasmic protein, membrane proteins and other fraction II Flow Cytometer (BD Biocsiences, San Jose, USA). were isolated as described by Chen and Schreiber et al. And the each final solution was made up to 5.0 mL
(§6) Cytotoxicity assay (MTT assay) using 2.0% (v/v) HNO3. The amount of Pt taken up by the cells was determined by ICP-MS. The instrument was […]

A549 cells = experiment: Cytotoxicity assay (MTT assay); type: cell-based, human; conditions: for Inhibitory rates (%): A549, 20 μM; for IC50: A549, 24 h
Method: as §1, §2, §3, §4, §5, §6

HeLa cells = experiment: Cytotoxicity assay (MTT assay); type: cell-based, human; conditions: for Inhibitory rates (%): 20 μM
Method: as §1, §2, §3, §4, §5, §6

Hep-G2 cells = experiment: Cytotoxicity assay (MTT assay); type: cell-based, human; conditions: for Inhibitory rates (%): Hep-G2, 20 μM; for IC50: Hep-G2, 24 h
Method: as §1, §2, §3, §4, §5, §6

MGC80-3 cells = experiment: Cytotoxicity assay (MTT assay); type: cell-based, human; conditions: for Inhibitory rates (%): MGC80-3, 20 μM; for IC50: MGC80-3, 24 h
Method: as §1, §2, §3, §4, §5, §6

BEL-7404 cells = experiment: Cytotoxicity assay (MTT assay); type: cell-based, human; conditions: for Inhibitory rates (%): BEL-7404, 20 μM; for IC50: BEL-7404, 24 h
Method: as §1, §2, §3, §4, §5, §6

HL-7702 normal cells = experiment: Cytotoxicity assay (MTT assay); type: cell-based, human; conditions: for Inhibitory rates (%): HL-7702, 20 μM; for IC50: HL-7702, 24 h
Method: To evaluate the cytotoxicity of chiral platinum(II) complexes, HeLa, BEL-7402, MGC80-3, BEL-7404, A549, Hep-G2 and HL-7702 cells (normal cells) were treated with varying concentrations of complexes 1–6 and cisplatin (positive control, cisplatin was dissolved at a concentration of 1.0 mM in 0.154 M NaCl) for 24 h and 48 h. The cell viability of each experimental group was examined by MTT assays. […] [61, 62].
as §2, §3

Row | Compound | G4DC50 [1] | Inhibitory rates (%) (BEL-7402 cells; 24 h) | Inhibitory rates (%) (BEL-7402 cells; 48 h) | IC50 (BEL-7402 cells) | Inhibitory rates (%) (A549 cells; 24 h) | Inhibitory rates (%) (A549 cells; 48 h) | IC50 (A549 cells) | Inhibitory rates (%) (HeLa cells; 24 h) | Inhibitory rates (%) (HeLa cells; 48 h) | IC50 (HeLa cells; 24 h) | Inhibitory rates (%) (Hep-G2 cells; 24 h) | Inhibitory rates (%) (Hep-G2 cells; 48 h) | IC50 (Hep-G2 cells) | Inhibitory rates (%) (MGC80-3 cells; 24 h) | Inhibitory rates (%) (MGC80-3 cells; 48 h) | IC50 (MGC80-3 cells) | Inhibitory rates (%) (BEL-7404 cells; 24 h) | Inhibitory rates (%) (BEL-7404 cells; 48 h) | IC50 (BEL-7404 cells) | selectivity index factor, IC50 (normal HL-7702 cells)/IC50 (BEL-7404 tumor cells) (HL-7702 normal cells; 24 h) | also measured
1 | O=C(NC[C@@H](O)CO)c1cnc2c3c(cccc13)-c1ccccc1C2=O.[Cl-].[Cl-].[Pt+2] [ligand 2, R-(+)-FOA] | 0.89 µM | 17.0 ± 0.6% | 22.3 ± 1.1% | 94.1 ± 0.5 µM | 28.9 ± 1.4% | 47.9 ± 0.9% | 67.2 ± 1.5 µM | 18.9 ± 0.6% | 26.8 ± 1.2% | 87.5 ± 0.8 µM | 17.5 ± 0.4% | 23.6 ± 2.3% | 90.6 ± 0.3 µM | 9.6 ± 0.6% | 19.6 ± 0.8% | 158.1 ± 0.6 µM | 25.1 ± 1.2% | 50.0 ± 0.6% | 72.3 ± 1 µM | 1.4 | Inhibitory rates (%) (HL-7702 normal cells; 24 h): 25.2 ± 0.3%; Inhibitory rates (%) (HL-7702 normal cells; 48 h): 30.6 ± 2.1%; IC50 (HL-7702 normal cells): 101.8 ± 0.4 µM
2 | O=C(NC[C@H](O)CO)c1cnc2c3c(cccc13)-c1ccccc1C2=O.[Cl-].[Cl-].[Pt+2] [ligand 3, S-(–)-FOA] | 0.82 µM | 35.1 ± 1.3% | 41.8 ± 2.5% | 45.8 ± 1.4 µM | 37.2 ± 0.8% | 51.2 ± 3.4% | 36.4 ± 1 µM | 31.2 ± 0.4% | 36.6 ± 1.5% | 43.2 ± 0.4 µM | 24.9 ± 0.8% | 29.3 ± 0.9% | 70.1 ± 0.8 µM | 24.2 ± 0.5% | 28.2 ± 1.4% | 78.2 ± 0.7 µM | 42.8 ± 0.4% | 64.8 ± 1.3% | 30.1 ± 0.7 µM | 3.5 | Inhibitory rates (%) (HL-7702 normal cells; 24 h): 23.4 ± 0.9%; Inhibitory rates (%) (HL-7702 normal cells; 48 h): 27.5 ± 1.2%; IC50 (HL-7702 normal cells): 105.3 ± 1 µM
